For one assay, the system named is SW480 cells. Nature of the assay: Migration/invasion of SW480 cells in collagen-coated Boyden chambers. Format: cell-based, human. The following applies: 1 μM, 30 min pre-treatment, 16 h; for PGF2α-induced migration of SW480 cells: then 1 μM PGF2α. As for the experimental part: SW480 cells were re-seeded into collagen-coated Boyden chambers, pretreated with PDC (1 μM, 30 min.), and stimulated or not with 1 μM PGF2α and PGE2 (use to show specificity of analogs for FP). Migration/invasion was assessed after 16 h.
Migration/invasion was assessed after 16 h.

In assay [1] the target is T1, PGF2α receptor (FP) (Homo sapiens, UniProt P43088). The assay is described as follows: Cell ruffling in FP expressing HEK293 cells. Conditions: 30 min; for inhibition of FP-induced (PGF2α-mediated) cell ruffling: pretreated 1 μM, then PGF2α 1 μM.
Description: Nine fields (50-75 cells/field) per cover slip were quantified to assess circular cellular ruffling.
Assay [2] concerns the target T1, PGF2α receptor (FP). The assay is described as follows: ERK1/2 MAP kinase activation in HEK293 cells stably transfected with HA-FP (western blot). The format is cell-based. The following applies: 1 μM azapeptide 30 min pre-treatment, then PGF2α 0.1 μM or 1 μM for 5 min. Further details: expressed in transfected cells; host or cells: HEK293. The protocol: PGF2αreceptor (FP) expressing cells were serum-starved and pre-treated with 1 μM azapeptides (6-9) for 30 min and then stimulated with 0.1 μM (A) or 1 μM (B) PGF2α for 5 min as described.^24 Blots were quantified by densitometry and plotted compared to the non-stimulated (NS) condition. Results are representative of five independent experiments;
PGF2α was obtained from Cayman. Mouse monoclonal anti-p-ERK and rabbit polyclonal anti-total ERK antibodies were from Cell Signaling. HEK293 cells stably transfected with HA-FP (HA-FP cells)^24 were employed to measure activation of MAP kinase by PGF2α using conventional western blot methods. Briefly, HA-FP cells in 6-well plates were starved for 30 min and pre-treated with 1 μM of an azapeptide (6-9) for 30 min, and then challenged with PGF2α (0.1 μM or 1 μM) for 5 min. Cells were lysed in Laemmli buffer 2× (250 mM Tris-HCl pH 6.8, 2% SDS, 10% Glycerol, 0.01% Bromophenol blue). Lysates were electrophoresed on a 10% SDS-PAGE gels, transferred to nitrocellulose membranes, and probed using mouse anti-p-ERK1/2 and rabbit anti-total-ERK1/2 antibodies. Blots were quantified by densitometry and statistical tests were performed as described.^24
On the technique in general: A western blot detects proteins with antibodies after separation by electrophoresis.

For assay [3], the system named is PGF2α-induced myometrial contractions. The assay is described as follows: Ex vivo myometrial contraction assay. More on the design: species or system mice. The following applies: mouse myometrial strips; compound given 15 min before PGF2α. The protocol:
FIGS. 7A and 7B show the effects of PDC113.824 and azapeptides 5-9 on mean tension in myometrial preparations induced by PGF2α. At the beginning of each experiment, mean tension of spontaneous myometrial contraction was considered as the basal response. […] Values as mean±SEM of 3-5 experiments for each compound; p<0.05 compared to all values without asterisks.
Ex vivo myometrial contraction assays were performed as previously described^24. Briefly, uteri from mice were obtained from animals immediately after delivery.

In assay [4] the test system is SW480, HT29, Caco-2 and HTC116 cells. Nature of the assay: Effect of PGF2α and PGE2 on colorectal cancer cell migration (collagen-coated Boyden chamber). The following applies: for migration of colorectal adenocarcinoma cell lines on stimulation: mediator 1 μM, 16 h, SW480, HT29, Caco-2, HTC116. The format is cell-based, human. As for the experimental part: SW480 (p53 mut, K-Ras mut, APC mut), HT29 (p53 mut, K-Ras WT, APC mut), Caco-2 (p53 mut, K-Ras WT, APC mut), and HTC116 ([…], K-Ras mut, APC mut) cells were re-seeded into Boyden chambers coated with collagen, stimulated or not with FBS (10%), PGF2α (1 μM) or PGE2 (1 μM). Migration/invation was assessed after 16 h. Results are presented as mean±SEM of 3 independent experiments. *p<0.05, **p<0.01, ***p<0.001 compared to non-stimulated (ns) conditions;

Here are results for 8 compounds from US8802818B2, “Prostaglandin-F2 alpha receptor modulators and uses thereof” (priority 2011, dated 2014).

Square brackets hold non-standard residues; d marks the D form. Peptide text beside a SMILES is read from it. * marks the point of attachment. 3Pal = N[C@@H](Cc1cccnc1)C(=O)O; β3hF = N[C@H](CC(=O)O)Cc1ccccc1; PhAc = O=C(Cc1ccccc1)*; azaGly = NNC(=O)O

T1 sequence (P43088 whole entry, species assumed): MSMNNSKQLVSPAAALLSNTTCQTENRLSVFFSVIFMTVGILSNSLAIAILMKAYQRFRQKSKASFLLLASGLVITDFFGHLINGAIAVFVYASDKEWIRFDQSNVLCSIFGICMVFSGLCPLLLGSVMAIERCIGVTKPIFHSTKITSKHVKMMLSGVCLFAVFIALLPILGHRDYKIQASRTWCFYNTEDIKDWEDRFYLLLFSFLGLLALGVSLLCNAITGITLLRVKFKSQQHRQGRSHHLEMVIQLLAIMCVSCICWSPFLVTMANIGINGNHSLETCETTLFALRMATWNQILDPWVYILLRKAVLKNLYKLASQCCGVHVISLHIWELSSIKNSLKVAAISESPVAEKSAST

`O=C(O)C[C@H](Cc1ccccc1)NC(=O)[C@H](Cc1cccnc1)NC(=O)[C@@H]1CCCN1C(=O)NNC(=O)Cc1ccccc1` [Compound 5] (PhAc-[azaGly]P[3Pal][β3hF]-OH): in the assay on SW480 cells, the “PGF2α-induced migration of SW480 cells” value is listed as “significantly impaired the ability of SW480 cells to migrate”. Moreover, the “inhibition of FP-induced (PGF2α-mediated) cell ruffling” value (from here on “inhibition of FP-induced”) at PGF2α receptor (FP) [1] is listed as “as effective as PDC113.824 in inhibiting FP-induced cell ruffling”.

As for `C#CCN(NC(=O)Cc1ccccc1)C(=O)N1CCC[C@H]1C(=O)N[C@@H](Cc1cccnc1)C(=O)N[C@H](CC(=O)O)Cc1ccccc1` [Compound 6, Phenylacetyl-aza-propargylglycinyl-(2S)-prolyl-(2S)-3-(pyridyl)-alaninyl-(3S)-β-homophenylalanine], in the assay with SW480 cells, the “PGF2α-induced migration of SW480 cells” value is recorded as “had an effect on cell migration but was not as effective as the others”. The “inhibition of FP-induced” value on PGF2α receptor (FP) [1] is reported as “slightly reduced PGF2α-mediated cell ruffling”. Further, the “PGF2α-mediated ERK1/2 signaling relative to cells stimulated with PGF2α alone” value on PGF2α receptor (FP) [2] was “significantly potentiated”.

In the case of `O=C(O)C[C@H](Cc1ccccc1)NC(=O)[C@H](Cc1cccnc1)NC(=O)[C@@H]1CCCN1C(=O)N(Cc1ccccc1)NC(=O)Cc1ccccc1` [Compound 7], in assay [3], the “reduction of PGF2α-induced myometrial contractions (mean tension)” value is “active”. Further, the “PGF2α-induced migration of SW480 cells” value in the assay with SW480 cells is recorded as “significantly impaired the ability of SW480 cells to migrate”. The “inhibition of FP-induced” value at PGF2α receptor (FP) [1] is on record as “as effective as PDC113.824 in inhibiting FP-induced cell ruffling”. The “PGF2α-mediated ERK1/2 signaling relative to cells stimulated with PGF2α alone” value on PGF2α receptor (FP) [2] is “significantly potentiated”.

On to `C=CCN(NC(=O)Cc1ccccc1)C(=O)N1CCC[C@H]1C(=O)N[C@@H](Cc1cccnc1)C(=O)N[C@H](CC(=O)O)Cc1ccccc1` [Compound 8], for which the “PGF2α-induced migration of SW480 cells” value in the assay on SW480 cells is recorded as “significantly impaired the ability of SW480 cells to migrate”. In addition, the “inhibition of FP-induced” value on PGF2α receptor (FP) [1] is reported as “as effective as PDC113.824 in inhibiting FP-induced cell ruffling”. In addition, the “PGF2α-mediated ERK1/2 signaling relative to cells stimulated with PGF2α alone” value at PGF2α receptor (FP) [2] is reported as “hindered”.

Consider `CN(NC(=O)Cc1ccccc1)C(=O)N1CCC[C@H]1C(=O)N[C@@H](Cc1cccnc1)C(=O)N[C@H](CC(=O)O)Cc1ccccc1` [Compound 9], for which the “PGF2α-induced migration of SW480 cells” value with SW480 cells is on record as “relatively lower effect”. Besides, the “inhibition of FP-induced” value at PGF2α receptor (FP) [1] was “slightly reduced PGF2α-mediated cell ruffling”. The “PGF2α-mediated ERK1/2 signaling relative to cells stimulated with PGF2α alone” value at PGF2α receptor (FP) [2] is “hindered”.

As for `O=C(O)C[C@H](Cc1ccccc1)NC(=O)[C@H](Cc1cccnc1)NC(=O)[C@@H]1CC[C@@H]2CC[C@H](NC(=O)Cc3ccccc3)C(=O)N21` [PDC113.824, Phenylacetyl-(3S,6S,9S)-I^2aa-(2S)-(3-pyridyl)alaninyl-(3S)-β-homophenylalanine, reference compound], the “reduction of PGF2α-induced myometrial contractions (mean tension)” value in assay [3] is “active”. For the same compound, in the assay with SW480 cells (then 1 μM PGE2), the “PGE2-induced migration of SW480 cells” value is recorded as “without affecting migration induced by PGE2”. In the assay with SW480 cells, the “PGF2α-induced migration of SW480 cells” value is “significantly blocked PGF2α-induced migration”; the “migration of SW480 cells in the absence of PGF2α and PGE2” value was “did not affect the migration of SW480 cells”. For the same compound, the “inhibition of FP-induced” value on PGF2α receptor (FP) [1] was “inhibiting FP-induced cell ruffling”.

Regarding `CCCCC[C@H](O)/C=C/[C@H]1[C@H](O)CC(=O)[C@@H]1C/C=C\CCCC(=O)O` [PGE2], in assay [4], the “migration of colorectal adenocarcinoma cell lines on stimulation” value was “enhanced migration of the four (4) cell lines examined”.

Consider `CCCCC[C@H](O)/C=C/[C@@H]1[C@@H](C/C=C\CCCC(=O)O)[C@@H](O)C[C@H]1O` [PGF2α], for which the “potency of PGF2α on migration compared with PGE2” value in assay [4] (SW480 and HT29 cells) was “as potent as PGE2”. In addition, the “migration of colorectal adenocarcinoma cell lines on stimulation” value in assay [4] is reported as “enhanced migration of the four (4) cell lines examined”. Moreover, on PGF2α receptor (FP) [1] (PGF2α 1 μM), the “membrane ruffle formation, share of FP cells” value was 65.7 ± 1.6%.
